Data from patent publication US10435371B2, “Multifunctional aminoquinoline therapeutic agent” (LOHOCLA RESEARCH CORPORATION, priority 2014, dated 2019).

What was measured:
5-HT1A (Serotonin Rs) = 5-HT1A (Serotonin Rs) (Homo sapiens, UniProt P08908); assay: PDSP radioligand binding
[1] = molecular target: T1, GABA-A receptors (α1, β2, γ2s subunits) (UniProt P18508+P47870+P62813); assay: Two-electrode voltage clamp, GABA-A receptors expressed in Xenopus oocytes; type: cell-based, rat α1 and γ2s, human β2; conditions: FIG. 4A
T1 construct: expressed in transfected cells; host or cells: Xenopus laevis oocytes injected with capped cRNAs (α1:β2:γ2s 2:2:20 ng)
T1 sequence (P62813 28-455): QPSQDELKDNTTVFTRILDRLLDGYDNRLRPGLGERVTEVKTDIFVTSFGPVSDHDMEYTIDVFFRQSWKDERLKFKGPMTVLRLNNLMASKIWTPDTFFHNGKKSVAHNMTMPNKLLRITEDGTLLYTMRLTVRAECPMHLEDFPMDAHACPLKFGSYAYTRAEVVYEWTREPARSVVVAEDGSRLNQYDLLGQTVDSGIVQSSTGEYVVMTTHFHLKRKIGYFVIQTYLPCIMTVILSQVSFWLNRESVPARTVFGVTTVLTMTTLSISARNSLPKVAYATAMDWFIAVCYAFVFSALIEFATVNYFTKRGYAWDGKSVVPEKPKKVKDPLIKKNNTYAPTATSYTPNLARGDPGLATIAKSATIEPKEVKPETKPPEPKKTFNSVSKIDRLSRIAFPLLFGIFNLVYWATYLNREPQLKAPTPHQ
T1 sequence (P47870 26-474 isoform P47870-1 limits assumed): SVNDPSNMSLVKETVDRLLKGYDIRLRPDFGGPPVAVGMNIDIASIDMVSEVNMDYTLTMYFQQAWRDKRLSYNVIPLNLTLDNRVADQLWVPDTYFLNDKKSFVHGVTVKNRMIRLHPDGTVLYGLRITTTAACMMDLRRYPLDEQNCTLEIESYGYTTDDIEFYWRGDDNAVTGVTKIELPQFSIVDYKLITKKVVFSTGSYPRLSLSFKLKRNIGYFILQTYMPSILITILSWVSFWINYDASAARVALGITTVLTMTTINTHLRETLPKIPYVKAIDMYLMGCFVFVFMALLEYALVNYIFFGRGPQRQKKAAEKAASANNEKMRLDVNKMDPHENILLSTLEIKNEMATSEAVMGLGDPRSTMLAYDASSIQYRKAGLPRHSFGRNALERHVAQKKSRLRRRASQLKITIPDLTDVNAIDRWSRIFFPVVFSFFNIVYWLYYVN
T1 sequence (P18508 39-466): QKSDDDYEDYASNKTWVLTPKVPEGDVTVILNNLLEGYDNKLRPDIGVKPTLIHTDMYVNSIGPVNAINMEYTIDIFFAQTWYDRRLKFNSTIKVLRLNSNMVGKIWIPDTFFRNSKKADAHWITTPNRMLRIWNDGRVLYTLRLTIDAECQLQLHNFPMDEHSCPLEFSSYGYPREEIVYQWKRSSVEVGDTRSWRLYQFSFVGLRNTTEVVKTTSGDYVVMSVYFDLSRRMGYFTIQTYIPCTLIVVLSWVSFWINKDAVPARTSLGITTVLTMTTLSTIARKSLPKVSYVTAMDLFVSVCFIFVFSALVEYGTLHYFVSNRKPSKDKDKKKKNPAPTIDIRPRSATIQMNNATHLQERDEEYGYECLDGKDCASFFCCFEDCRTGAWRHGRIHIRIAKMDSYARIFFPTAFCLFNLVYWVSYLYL
Procedure: Xenopus laevis frogs were obtained from Nasco (Fort Atkinson, Wis., USA). The complementary DNAs encoding the GABAA subunits rat α1 and γ2s and human β2 were provided by Dr. M. H. Akabas and Dr. Paul Whiting, respectively. The in vitro transcription of α1, β2, and γ2s subunits was performed using mMessage mMachine® (Life Technologies, Grand Island, N.Y.). After isolation of Xenopus laevis oocytes, they were injected with capped complementary RNAs encoding α1, β2, and γ2s subunits in a ratio 2:2:20 ng. The injected oocytes were incubated at 15° C. in sterilized Barth's solution [MBS; composition: 88 mM NaCl, 1 mM KCl, 10 mM HEPES, 0.82 mM MgSO4, 2.4 mM NaHCO3, 0.91 mM CaCl2), and 0.33 mM Ca(NO3)2, pH 7.5] for 3-5 days before recording. All surgery was performed according to an approved institutional protocol. The responses of GABAARs expressed in oocytes were studied through two-electrode voltage clamp (Oocyte Clamp OC-725C, Warner Instruments, Hamden, Conn.), recording through a POWERLAB 4/30 system (ADInstruments, Colorado Springs, Colo.). The oocyte was placed in a chamber perfused with MBS, and voltage-clamped at −70 mV.

[2] = molecular target: mGluR5 (Metabotropic Glutamate Rs) (Homo sapiens, UniProt P41594); assay: PDSP radioligand binding
Chain of mGluR5 (Metabotropic Glutamate Rs) (P41594 21-1212): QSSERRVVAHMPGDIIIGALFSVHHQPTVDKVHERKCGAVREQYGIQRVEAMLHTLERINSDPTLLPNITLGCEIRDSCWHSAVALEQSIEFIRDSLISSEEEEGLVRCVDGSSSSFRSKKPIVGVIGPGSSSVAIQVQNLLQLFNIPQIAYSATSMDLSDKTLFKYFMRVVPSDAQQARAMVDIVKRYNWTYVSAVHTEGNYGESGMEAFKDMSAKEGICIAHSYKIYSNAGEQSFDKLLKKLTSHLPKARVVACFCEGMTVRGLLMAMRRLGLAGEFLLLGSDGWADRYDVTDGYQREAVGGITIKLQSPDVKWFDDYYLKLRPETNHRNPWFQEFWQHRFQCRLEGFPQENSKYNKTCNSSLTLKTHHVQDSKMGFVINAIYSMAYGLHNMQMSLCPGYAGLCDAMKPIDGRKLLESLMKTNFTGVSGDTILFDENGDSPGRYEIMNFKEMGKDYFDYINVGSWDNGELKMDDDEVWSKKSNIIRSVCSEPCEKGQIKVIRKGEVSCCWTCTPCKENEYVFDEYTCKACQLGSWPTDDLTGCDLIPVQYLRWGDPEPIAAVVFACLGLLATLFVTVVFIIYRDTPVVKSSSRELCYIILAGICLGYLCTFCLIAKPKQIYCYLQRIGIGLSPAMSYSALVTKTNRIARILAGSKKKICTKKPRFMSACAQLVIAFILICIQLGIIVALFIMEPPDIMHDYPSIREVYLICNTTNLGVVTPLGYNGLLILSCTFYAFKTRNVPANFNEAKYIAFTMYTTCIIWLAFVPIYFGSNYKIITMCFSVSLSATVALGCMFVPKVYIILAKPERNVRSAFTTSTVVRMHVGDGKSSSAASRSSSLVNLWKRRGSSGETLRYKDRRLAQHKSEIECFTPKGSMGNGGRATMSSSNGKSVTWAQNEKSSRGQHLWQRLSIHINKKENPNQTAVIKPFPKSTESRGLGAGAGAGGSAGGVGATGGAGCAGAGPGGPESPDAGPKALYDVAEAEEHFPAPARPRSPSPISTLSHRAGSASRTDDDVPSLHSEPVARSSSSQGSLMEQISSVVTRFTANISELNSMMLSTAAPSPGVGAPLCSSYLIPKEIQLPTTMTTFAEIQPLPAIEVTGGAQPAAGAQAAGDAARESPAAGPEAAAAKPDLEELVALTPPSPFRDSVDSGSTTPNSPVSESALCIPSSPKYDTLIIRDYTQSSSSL

[3] = test system: rats treated with Complete Freund's Adjuvant; assay: Combination with morphine, CFA-induced pain, mechanical pain threshold; type: in vivo, rat; conditions: FIG. 15 Panel A
CB1 Receptor = molecular target: T2, CB1 Receptor (Homo sapiens, UniProt P21554); assay: PDSP radioligand displacement, [^3H]CP55940; set-up: species or system rat; conditions: read-out: Binding constant Ki, CB1 Receptor
T2 construct: expressed in transfected cells
T2 sequence (P21554 whole entry): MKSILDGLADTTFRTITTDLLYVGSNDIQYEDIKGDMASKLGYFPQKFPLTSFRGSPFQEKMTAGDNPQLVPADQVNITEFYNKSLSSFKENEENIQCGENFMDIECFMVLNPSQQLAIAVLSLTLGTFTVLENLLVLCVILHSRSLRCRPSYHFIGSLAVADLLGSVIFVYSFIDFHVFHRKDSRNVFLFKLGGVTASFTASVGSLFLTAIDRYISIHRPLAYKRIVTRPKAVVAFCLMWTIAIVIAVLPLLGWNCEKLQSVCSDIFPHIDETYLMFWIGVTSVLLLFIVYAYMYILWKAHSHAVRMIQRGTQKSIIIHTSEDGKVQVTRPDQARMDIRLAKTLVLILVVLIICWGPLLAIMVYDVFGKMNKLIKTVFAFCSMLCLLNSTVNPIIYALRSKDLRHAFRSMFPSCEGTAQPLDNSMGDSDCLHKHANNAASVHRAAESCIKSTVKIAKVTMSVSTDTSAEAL

[4] = molecular target: GABA site, GABA-A Receptor; assay: PDSP radioligand displacement, [^3H]Muscimol; set-up: species or system rat; conditions: read-out: Binding constant Ki, GABA site, GABA-A Receptor
5-HT1B (Serotonin Rs) = 5-HT1B (Serotonin Rs) (Homo sapiens, UniProt P28222); assay: PDSP radioligand binding
Chain of 5-HT1B (Serotonin Rs) (P28222 whole entry): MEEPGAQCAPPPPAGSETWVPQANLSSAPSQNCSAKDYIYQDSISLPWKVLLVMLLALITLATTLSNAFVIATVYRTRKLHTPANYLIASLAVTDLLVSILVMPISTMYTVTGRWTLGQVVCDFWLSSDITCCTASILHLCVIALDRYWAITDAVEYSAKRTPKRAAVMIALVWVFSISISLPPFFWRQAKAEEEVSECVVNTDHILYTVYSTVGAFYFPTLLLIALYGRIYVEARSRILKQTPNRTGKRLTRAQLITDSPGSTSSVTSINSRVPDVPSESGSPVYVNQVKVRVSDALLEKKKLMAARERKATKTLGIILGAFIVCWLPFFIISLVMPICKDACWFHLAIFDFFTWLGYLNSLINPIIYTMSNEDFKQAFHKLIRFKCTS

[5] = test system: rats treated with cisplatin; assay: Reversal of cisplatin-induced neuropathic pain (von Frey mechanical pain threshold); type: in vivo, rat; conditions: 50 mg/kg oral
[6] = test system: rats treated with Complete Freund's Adjuvant; assay: Prevention of CFA-induced neuropathic pain; type: in vivo, rat; conditions: 50 mg/kg oral, four treatments at 12-hour intervals starting after CFA injection; FIG. 13
Procedure: (§1) This example illustrates that treatment of animals with DCUKA following insult, but prior to development of neuropathic pain, can prevent the development of the pain. Rats were treated with cisplatin or CFA, and mechanical pain threshold was measured, as described under Example 5.
Prevention of CFA-Induced Neuropathic Pain by DCUKA. After baseline measurement of the mechanical pain threshold, rats were treated with CFA as described earlier. Following the CFA injection, rats were given vehicle (canola oil/gelatin) (n=7) or 50 mg/kg DCUKA (n=7) orally by intragastric gavage. Rats then received three more treatments with vehicle or DCUKA at 12-hour intervals. At 60 hours after CFA treatment, the mechanical pain threshold was again tested.

[7] = test system: rats treated with cisplatin; assay: Prevention of cisplatin-induced neuropathic pain; type: in vivo, rat; conditions: 50 mg/kg intragastric twice daily for 14 days starting 1 h after first cisplatin injection; FIG. 14
Procedure: as §1
Prevention of Cisplatin-Induced Neuropathic Pain by DCUKA. One day after baseline measurement of the mechanical pain threshold, rats were injected i.p. with cisplatin. Cisplatin injections were again given on days 4, 8, and 12. Starting one hour after the first cisplatin injection, rats were given 50 mg/kg DCUKA or vehicle via intragastric gavage twice daily for 14 days. After the last treatment (day 15) the mechanical pain threshold was again tested. The pain threshold was then tested once weekly for 4 weeks, with no further treatments.

[8] = molecular target: M1 (Muscarinic Cholinergic Rs) (Homo sapiens, UniProt P11229); assay: PDSP radioligand binding
Chain of M1 (Muscarinic Cholinergic Rs) (P11229 whole entry): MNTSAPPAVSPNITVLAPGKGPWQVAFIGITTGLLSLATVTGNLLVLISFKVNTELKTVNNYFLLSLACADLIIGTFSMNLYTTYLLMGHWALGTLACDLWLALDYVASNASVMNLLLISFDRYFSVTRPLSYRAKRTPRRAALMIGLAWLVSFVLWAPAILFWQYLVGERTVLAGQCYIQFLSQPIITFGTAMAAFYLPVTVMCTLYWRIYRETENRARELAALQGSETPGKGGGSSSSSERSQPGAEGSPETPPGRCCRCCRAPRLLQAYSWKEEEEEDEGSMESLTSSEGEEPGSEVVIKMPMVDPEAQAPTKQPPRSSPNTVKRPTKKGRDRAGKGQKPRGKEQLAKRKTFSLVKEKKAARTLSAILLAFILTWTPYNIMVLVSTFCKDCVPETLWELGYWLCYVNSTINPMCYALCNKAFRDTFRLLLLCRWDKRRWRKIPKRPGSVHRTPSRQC

ethanol dependent rats = assay: Operant responding for alcohol in ethanol vapor-exposed dependent rats; type: in vivo, rat; conditions: ethanol vapor-exposed rats; FIG. 18
From the text: This example illustrates that ethanol dependent rats are motivated to work for ethanol reward during a period of forced abstinence and that DCUK-OEt reduces responding for the alcohol reward.
The methods used in this study are extensively described in (Vendruscolo et al., 2012). The rats were first trained to self-administer ethanol in an operant chamber. The rats were given free-choice access to alcohol (10% w/v) and water for 1 day in their home cages to habituate them to the taste of alcohol. The rats were then subjected to an overnight session in the operant chambers with access to one lever that delivered water (FR1). Food was available ad libitum during this training. After 1 day off, the rats were subjected to a 2 hour session (FR1) for 1 day and a 1 hour session (FR1) the next day, with one lever delivering alcohol. All of the subsequent sessions lasted 30 minutes, and two levers were available (left lever: water; right lever: alcohol). Once trained, the rats were made dependent by chronic, intermittent exposure to alcohol vapors (Gilpin et al., 2008). They underwent cycles of 14 hours of ethanol exposure (blood alcohol levels during vapor exposure ranged between 150 and 250 mg %) and 10 hours in the absence of ethanol vapor, during which behavioral testing for acute withdrawal occurred (i.e., 6-8 hours after vapor was turned off, when brain and blood alcohol levels were negligible). Nondependent rats were those not exposed to alcohol vapor. Pharmacological testing occurred after at least 2 months of vapor exposure, when full dependence was observed. DCUKA-OEt was administered i.p. at the doses specified in FIG. 18, sixty minutes prior to placing the animal in the operant chamber. The vehicle for DCUK-OEt was injected in certain animals as a control.

[9] = test system: rats treated with streptozotocin; assay: Reversal of streptozotocin-induced (diabetic) neuropathic pain (von Frey); type: in vivo, rat
MOR (μ opiate receptor) = MOR (μ opiate receptor) (Homo sapiens, UniProt P35372); assay: PDSP radioligand binding, [^3H]DAMGO
Chain of MOR (μ opiate receptor) (P35372 whole entry): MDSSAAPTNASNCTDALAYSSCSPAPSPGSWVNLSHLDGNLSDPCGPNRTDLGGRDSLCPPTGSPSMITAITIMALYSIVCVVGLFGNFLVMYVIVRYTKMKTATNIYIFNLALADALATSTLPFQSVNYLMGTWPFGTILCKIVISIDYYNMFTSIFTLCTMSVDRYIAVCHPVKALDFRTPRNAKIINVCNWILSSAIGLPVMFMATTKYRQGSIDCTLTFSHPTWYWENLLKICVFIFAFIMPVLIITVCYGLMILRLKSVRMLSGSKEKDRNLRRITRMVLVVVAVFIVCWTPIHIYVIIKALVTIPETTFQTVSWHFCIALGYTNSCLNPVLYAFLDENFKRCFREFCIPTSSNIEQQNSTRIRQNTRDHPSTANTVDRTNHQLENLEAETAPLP

Chain of 5-HT1A (Serotonin Rs) (P08908 whole entry): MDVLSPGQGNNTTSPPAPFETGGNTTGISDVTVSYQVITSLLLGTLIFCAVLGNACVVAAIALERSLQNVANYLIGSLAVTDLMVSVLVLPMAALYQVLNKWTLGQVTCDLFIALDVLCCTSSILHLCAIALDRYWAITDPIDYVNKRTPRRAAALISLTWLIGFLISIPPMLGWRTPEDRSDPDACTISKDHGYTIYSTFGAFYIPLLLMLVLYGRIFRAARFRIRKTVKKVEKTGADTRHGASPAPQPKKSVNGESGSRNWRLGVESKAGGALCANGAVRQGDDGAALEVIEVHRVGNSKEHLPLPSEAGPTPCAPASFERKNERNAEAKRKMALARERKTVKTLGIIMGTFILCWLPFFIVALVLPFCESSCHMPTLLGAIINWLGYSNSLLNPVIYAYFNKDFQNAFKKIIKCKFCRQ

O=C(O)c1cc(NC(=O)N(c2ccccc2)c2ccccc2)c2c(Cl)cc(Cl)cc2n1 [DCUKA, 5,7-dichloro-4-(3,3-diphenylureido)quinoline-2-carboxylic acid]
Ki (5-HT1A (Serotonin Rs)): > 10 µM
Character of action at the GABA-A receptor [1]: positive allosteric modulators (PAM)
GABA-induced chloride currents ([1]; co-applied with EC10 GABA): significantly enhanced GABA-induced currents
Chloride currents, compound alone ([1]; without GABA): no effect on chloride currents by themselves
Ki [2]: > 10 µM
Analgesia, each agent alone at the dose used for the combination [3]: ineffective in producing analgesia
Reversal of CFA-induced pain, combination of DCUKA and morphine ([3]; doses ineffective alone, injected 30 min before test, 48 h after CFA): complete reversal of inflammation-induced chronic pain
Ki (CB1 Receptor): 11 ± 2.7 µM
Ki [4]: 6.6 ± 1.8 µM
Ki (5-HT1B (Serotonin Rs)): > 10 µM
Mechanical pain threshold, ratio to baseline ([5]; cisplatin i.p. 7 mg/kg total, day 14, 1 and 2 hours, FIG. 6): significantly reversed the drop in mechanical pain threshold
Mechanical pain threshold, ratio to pre-cisplatin baseline ([5]; rats, 1 hour after dosing, six experiments combined, FIG. 5): increases the mechanical pain threshold to control levels
Mechanical pain threshold at 60 hours after CFA, ratio to baseline [6]: the threshold was not reduced
Mechanical pain threshold (paw withdrawal threshold) over days [7]: no statistically significant decrease of pain threshold compared to the pre-cisplatin baseline
Ki [8]: > 10 µM
Alcohol self-administration compared to baseline (ethanol dependent rats): no significant effect on repressing alcohol self-administration
Mechanical pain threshold, ratio to baseline ([9]; 14 days after STZ, 40 or 50 mg/kg oral, 90 minutes, three experiments combined, FIG. 10): reversed to the baseline level
Difference between 50 mg/kg DCUKA and 0 mg/kg DCUKA in ratio of mechanical pain threshold to pre-STZ threshold ([9]; Fisher's LSD, p<0.0001, FIG. 10): 0.60
Doses that reversed the effect of STZ on pain threshold back to baseline ([9]; oral, 90 minutes, meta-analysis of four experiments, FIG. 11): ≥ 30 mg/kg
Ki (MOR (μ opiate receptor)): > 10 µM
